# Reference: PubChem BioAssay (NCI)
#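 Five compound concentrations were applied to cells in 96-well plates for 48 hours; endpoints were derived by simple linear interpolation of the resulting dose-response curve. TGI: concentration producing complete growth inhibition.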
# How the values were obtained:
# Assay in all cases: NCI-60 cell line screen, 48 h
# A549 NSCLC = test system: A549 NSCLC
# A498 renal = test system: A498 renal
# LOX IMVI melanoma = test system: LOX IMVI melanoma
# ACHN renal = test system: ACHN renal
# PC-3 prostate = test system: PC-3 prostate
# COLO 205 colon = test system: COLO 205 colon
# SNB-75 CNS = test system: SNB-75 CNS
# SF-539 CNS = test system: SF-539 CNS
# CAKI-1 renal = test system: CAKI-1 renal
# MOLT-4 leukemia = test system: MOLT-4 leukemia
# HOP-62 NSCLC = test system: HOP-62 NSCLC
# KM12 colon = test system: KM12 colon
# SK-OV-3 ovarian = test system: SK-OV-3 ovarian
# OVCAR-4 ovarian = test system: OVCAR-4 ovarian
# MDA-MB-435 = test system: MDA-MB-435
# NCI-H460 lung = test system: NCI-H460 lung
# OVCAR-5 ovarian = test system: OVCAR-5 ovarian
# 786-0 renal = test system: 786-0 renal
# SN12C renal = test system: SN12C renal
# HCC-2998 colon = test system: HCC-2998 colon
# SK-MEL-2 melanoma = test system: SK-MEL-2 melanoma
# SF-268 CNS = test system: SF-268 CNS
# HCT-116 colon = test system: HCT-116 colon
# BT-549 breast = test system: BT-549 breast
# NCI-H522 lung = test system: NCI-H522 lung
# HOP-92 NSCLC = test system: HOP-92 NSCLC
# HCT-15 colon = test system: HCT-15 colon
# OVCAR-3 ovarian = test system: OVCAR-3 ovarian
# SNB-19 CNS = test system: SNB-19 CNS
# MDA-N = test system: MDA-N
# K-562 leukemia = test system: K-562 leukemia
# SK-MEL-5 melanoma = test system: SK-MEL-5 melanoma
# NCI-H23 lung = test system: NCI-H23 lung
# TK-10 renal = test system: TK-10 renal
# IGROV1 ovarian = test system: IGROV1 ovarian
# T-47D breast = test system: T-47D breast
# CCRF-CEM leukemia = test system: CCRF-CEM leukemia
# OVCAR-8 ovarian = test system: OVCAR-8 ovarian
# UACC-257 melanoma = test system: UACC-257 melanoma
# HS 578T breast = test system: HS 578T breast
# MDA-MB-231 breast = test system: MDA-MB-231 breast
# DU-145 prostate = test system: DU-145 prostate
# RXF 393 renal = test system: RXF 393 renal
# NCI-H226 lung = test system: NCI-H226 lung
# SW-620 colon = test system: SW-620 colon
# MCF7 breast = test system: MCF7 breast
# SK-MEL-28 melanoma = test system: SK-MEL-28 melanoma
# NCI/ADR-RES ovarian = test system: NCI/ADR-RES ovarian
# M14 melanoma = test system: M14 melanoma
# SF-295 CNS = test system: SF-295 CNS
# UACC-62 melanoma = test system: UACC-62 melanoma
# UO-31 renal = test system: UO-31 renal
# HL-60(TB) leukemia = test system: HL-60(TB) leukemia
# U251 CNS = test system: U251 CNS
# HT29 colon = test system: HT29 colon
# EKVX NSCLC = test system: EKVX NSCLC
# RPMI-8226 leukemia = test system: RPMI-8226 leukemia
# MALME-3M melanoma = test system: MALME-3M melanoma
# SR leukemia = test system: SR leukemia
smiles,measurement,setting,value
CC(C)NCC(O)c1cc(OCc2ccccc2)c(OCc2ccccc2)cc1NC(=O)CCC(=O)O (stereo not drawn),TGI,A549 NSCLC,24.5 µM
same,TGI,A498 renal,26 µM
same,TGI,LOX IMVI melanoma,2.97 µM
same,TGI,ACHN renal,13.1 µM
same,TGI,PC-3 prostate,21.3 µM
same,TGI,COLO 205 colon,4.01 µM
same,TGI,SNB-75 CNS,23.9 µM
same,TGI,SF-539 CNS,30.9 µM
same,TGI,CAKI-1 renal,21.3 µM
same,TGI,MOLT-4 leukemia,14.8 µM
same,TGI,HOP-62 NSCLC,29.7 µM
same,TGI,KM12 colon,9.51 µM
same,TGI,SK-OV-3 ovarian,29.2 µM
same,TGI,OVCAR-4 ovarian,24.8 µM
same,TGI,MDA-MB-435,17.4 µM
same,TGI,NCI-H460 lung,3.71 µM
same,TGI,OVCAR-5 ovarian,30.6 µM
same,TGI,786-0 renal,20.9 µM
same,TGI,SN12C renal,24.3 µM
same,TGI,HCC-2998 colon,6.47 µM
same,TGI,SK-MEL-2 melanoma,3.32 µM
same,TGI,SF-268 CNS,22.7 µM
same,TGI,HCT-116 colon,17.9 µM
same,TGI,BT-549 breast,31.1 µM
same,TGI,NCI-H522 lung,11.7 µM
same,TGI,HOP-92 NSCLC,19 µM
same,TGI,HCT-15 colon,12.4 µM
same,TGI,OVCAR-3 ovarian,28.2 µM
same,TGI,SNB-19 CNS,28.3 µM
same,TGI,MDA-N,5.97 µM
same,TGI,K-562 leukemia,4.32 µM
same,TGI,SK-MEL-5 melanoma,4.97 µM
same,TGI,NCI-H23 lung,26.5 µM
same,TGI,TK-10 renal,22.5 µM
same,TGI,IGROV1 ovarian,24.2 µM
same,TGI,T-47D breast,25.7 µM
same,TGI,CCRF-CEM leukemia,13 µM
same,TGI,OVCAR-8 ovarian,21.5 µM
same,TGI,UACC-257 melanoma,26.4 µM
same,TGI,HS 578T breast,30.7 µM
same,TGI,MDA-MB-231 breast,20.9 µM
same,TGI,DU-145 prostate,25.8 µM
same,TGI,RXF 393 renal,18.6 µM
same,TGI,NCI-H226 lung,33.2 µM
same,TGI,SW-620 colon,7.51 µM
same,TGI,MCF7 breast,19 µM
same,TGI,SK-MEL-28 melanoma,9.37 µM
same,TGI,NCI/ADR-RES ovarian,28.7 µM
same,TGI,M14 melanoma,3.48 µM
same,TGI,SF-295 CNS,15.7 µM
same,TGI,UACC-62 melanoma,8.69 µM
same,TGI,UO-31 renal,15 µM
same,TGI,HL-60(TB) leukemia,15.4 µM
same,TGI,U251 CNS,18.2 µM
same,TGI,HT29 colon,12.9 µM
same,TGI,EKVX NSCLC,26.9 µM
same,TGI,RPMI-8226 leukemia,8.65 µM
same,TGI,MALME-3M melanoma,28.6 µM
same,TGI,SR leukemia,9.01 µM
Cn1c(=O)cc(NNc2ccccc2)[nH]c1=O,TGI,A549 NSCLC,> 100 µM
same,TGI,A498 renal,> 100 µM
same,TGI,LOX IMVI melanoma,28.3 µM
same,TGI,ACHN renal,> 100 µM
same,TGI,PC-3 prostate,> 100 µM
same,TGI,COLO 205 colon,> 100 µM
same,TGI,SNB-75 CNS,> 100 µM
same,TGI,SF-539 CNS,> 100 µM
same,TGI,CAKI-1 renal,29.2 µM
same,TGI,MOLT-4 leukemia,> 100 µM
same,TGI,HOP-62 NSCLC,> 100 µM
same,TGI,KM12 colon,49.9 µM
same,TGI,SK-OV-3 ovarian,> 100 µM
same,TGI,OVCAR-4 ovarian,> 100 µM
same,TGI,MDA-MB-435,75 µM
same,TGI,NCI-H460 lung,> 100 µM
same,TGI,OVCAR-5 ovarian,> 100 µM
same,TGI,786-0 renal,30 µM
same,TGI,SN12C renal,> 100 µM
same,TGI,HCC-2998 colon,> 100 µM
same,TGI,SK-MEL-2 melanoma,> 100 µM
same,TGI,SF-268 CNS,> 100 µM
same,TGI,HCT-116 colon,31.6 µM
same,TGI,BT-549 breast,> 100 µM
same,TGI,NCI-H522 lung,28.9 µM
same,TGI,HOP-92 NSCLC,44.7 µM
same,TGI,HCT-15 colon,30.1 µM
same,TGI,OVCAR-3 ovarian,30.4 µM
same,TGI,SNB-19 CNS,> 100 µM
same,TGI,MDA-N,> 100 µM
same,TGI,K-562 leukemia,> 100 µM
same,TGI,SK-MEL-5 melanoma,> 100 µM
same,TGI,NCI-H23 lung,> 100 µM
same,TGI,TK-10 renal,65.9 µM
same,TGI,IGROV1 ovarian,85.7 µM
same,TGI,T-47D breast,38.9 µM
same,TGI,CCRF-CEM leukemia,90.4 µM
same,TGI,OVCAR-8 ovarian,42.1 µM
same,TGI,UACC-257 melanoma,> 100 µM
same,TGI,HS 578T breast,> 100 µM
same,TGI,MDA-MB-231 breast,33.5 µM
same,TGI,DU-145 prostate,> 100 µM
same,TGI,RXF 393 renal,33.6 µM
same,TGI,NCI-H226 lung,> 100 µM
same,TGI,SW-620 colon,31.3 µM
same,TGI,MCF7 breast,12.8 µM
same,TGI,SK-MEL-28 melanoma,60.4 µM
same,TGI,NCI/ADR-RES ovarian,> 100 µM
same,TGI,M14 melanoma,89.9 µM
same,TGI,SF-295 CNS,> 100 µM
same,TGI,UACC-62 melanoma,> 100 µM
same,TGI,UO-31 renal,> 100 µM
same,TGI,HL-60(TB) leukemia,56.8 µM
same,TGI,U251 CNS,31.7 µM
same,TGI,HT29 colon,29.1 µM
same,TGI,EKVX NSCLC,> 100 µM
same,TGI,RPMI-8226 leukemia,48.1 µM
same,TGI,MALME-3M melanoma,75.9 µM
same,TGI,SR leukemia,57.8 µM
